Assay type in all cases: cell-based
Series [1] deals with Mycobacterium tuberculosis H37Rv. In words: Microplate Alamar Blue assay (MABA) MIC, M. tuberculosis. The conditions noted are these: read-out: MIC Mycobacterium tuberculosis H37Rv. From the text:
(§1) Minimal inhibitory concentrations (MICs) in Mycobacterium tuberculosis H37Rv and Mycobacterium avium ATCC 25291 were quantified using microplate Alamar Blue assays as described (MABA; [Collins, L. & Franzblau, S. (1997) Microplate Alamar Blue assay versus BACTEC 460 system for high-throughput screening of compounds against Mycobacterium tuberculosis and Mycobacterium avium. Antimicrob. Agents Chemother. 41, 1004-1009]).
(Alamar Blue is a resazurin reagent that responds to reducing activity.)

Series [2] relates to Mycobacterium avium ATCC 25291. In words: Microplate Alamar Blue assay (MABA) MIC, M. avium. The conditions noted are these: ATCC25291, M. avium ATCC 25291.
Source text: as §1

Series [3] concerns Mycobacterium smegmatis ATCC 19420. In words: Broth microdilution MIC, M. smegmatis. The conditions noted are these: Mycolicibacterium smegmatis, ATCC19420, M. smegmatis ATCC 19420; read-out: MIC Mycobacterium smegmatis ATCC 19420. The source says: MICs in Mycobacterium smegmatis ATCC 19420 and Mycobacterium smegmatis ATCC 19420 derivatives were quantified using broth microdilution assays as described [Clinical and Laboratory Standards Institute (CLSI/NCCLS) (2009) Methods for Dilution Antimicrobial Susceptibility Tests for Bacteria That Grow Aerobically; Approved Standard, Eighth Edition. CLIS Document M07-A8 (CLIS, Wayne Pa.)].
(In broth dilution the organism is exposed to a series of concentrations in liquid medium.)

For series [4], the system named is Vero E6 ATCC CRL1586 cells. In words: Mammalian-cell cytotoxicity, minimal cytotoxic concentration (CellTiter96). The procedure:
Minimal cytotoxic concentrations (MCCs) against mammalian cells in culture were determined using Vero E6 ATCC CRL1586 cells and the CellTiter96 assay kit (Promega, Inc.). […]

SMILES strings stand for the structures. Converted amounts (≈) assume the structure as drawn.

By MIC is commonly meant the smallest concentration in the dilution series that meets the test's criterion for growth inhibition. For `Cc1ccccc1C(=O)NC(Cc1ccccc1)C(=O)Nc1cccc2ncccc12` (stereo not shown) [IX-70, 2-methyl-N-(1-oxo-3-phenyl-1-(quinolin-5-ylamino)propan-2-yl)benzamide], the values for the MIC in series [1], in series [2] and in series [3] were 12.5 µg/mL (≈ 30.5 µM), 25 µg/mL (≈ 61.1 µM) and 0.39 µg/mL (≈ 0.952 µM), respectively. Moreover, in series [4], the “MCC mammalian cells Vero E6 ATCC CRL1586” value came out at 63 µg/mL.
For `Cc1ccccc1C(=O)NC(Cc1ccccc1)C(=O)Nc1cccc2c1OCCO2` (stereo not shown) [IX-71, N-(1-((2,3-dihydrobenzo[b][1,4]dioxin-5-yl)amino)-1-oxo-3-phenylpropan-2-yl)-2-methylbenzamide] the same measures were 1.56 µg/mL (≈ 3.75 µM), 3.12 µg/mL (≈ 7.5 µM), 0.39 µg/mL (≈ 0.936 µM) and 10 µg/mL.
Turning to `O=C(NC(Cc1ccccc1)C(=O)Nc1cccc2c1OCO2)c1ccccc1` (stereo not shown) [IX-72, N-(1-(benzo[d][1,3]dioxol-4-ylamino)-1-oxo-3-phenylpropan-2-yl)benzamide], the MIC is 6.25 µg/mL (≈ 16.1 µM) in series [1], 3.12 µg/mL (≈ 8.05 µM) in series [2] and 0.095 µg/mL (≈ 0.245 µM) in series [3]. Moreover, the “MCC mammalian cells Vero E6 ATCC CRL1586” value in series [4] turned out to be 33 µg/mL.
In the same order, the values of `O=C(NC(Cc1ccccc1)C(=O)Nc1cc(F)cc2ncccc12)c1ccccc1` (stereo not shown) [IX-75, N-(1-((7-fluoroquinolin-5-yl)amino)-1-oxo-3-phenylpropan-2-yl)benzamide] are 0.78 µg/mL (≈ 1.89 µM), 0.78 µg/mL (≈ 1.89 µM), 0.39 µg/mL (≈ 0.943 µM) and above 100 µg/mL.
On to `Cc1ccc(F)cc1NC(=O)C(Cc1ccccc1)NC(=O)c1cccs1` (stereo not shown) [IX-79, N-(1-((5-fluoro-2-methylphenyl)amino)-1-oxo-3-phenylpropan-2-yl)thiophene-2-carboxamide], for which the MIC in series [1] is 1.56 µg/mL (≈ 4.08 µM); in series [2] it was 1.56 µg/mL (≈ 4.08 µM); in series [3], 0.19 µg/mL (≈ 0.497 µM). The “MCC mammalian cells Vero E6 ATCC CRL1586” value in series [4] turned out to be 23 µg/mL.
Take `Cc1ccc(F)cc1NC(=O)C(Cc1ccccc1)NC(=O)c1cccc2[nH]ccc12` (stereo not shown) [IX-80, N-(1-((5-fluoro-2-methylphenyl)amino)-1-oxo-3-phenylpropan-2-yl)-1H-indole-4-carboxamide]: the MIC in series [1] amounted to 1.56 µg/mL (≈ 3.75 µM); in series [2] it was 3.12 µg/mL (≈ 7.52 µM); in series [3], 0.195 µg/mL (≈ 0.469 µM). Further, the “MCC mammalian cells Vero E6 ATCC CRL1586” value in series [4] turned out to be 33 µg/mL.
For `Cc1ccc(F)cc1NC(=O)C(Cc1ccccc1)NC(=O)c1ccccc1F` (stereo not shown) [IX-81, 2-fluoro-N-(1-((5-fluoro-2-methylphenyl)amino)-1-oxo-3-phenylpropan-2-yl)benzamide] the same measures were 1.56 µg/mL (≈ 3.96 µM), 3.12 µg/mL (≈ 7.92 µM), 0.195 µg/mL (≈ 0.494 µM) and 38 µg/mL.
In the case of `Cc1ccc(F)cc1NC(=O)C(Cc1ccccc1)NC(=O)c1ccccc1Cl` (stereo not shown) [IX-82, 2-chloro-N-(1-((5-fluoro-2-methylphenyl)amino)-1-oxo-3-phenylpropan-2-yl)benzamide], the MIC in series [1] amounted to 1.56 µg/mL (≈ 3.8 µM); in series [2], 3.12 µg/mL (≈ 7.61 µM); in series [3], 0.39 µg/mL (≈ 0.949 µM). In addition, the “MCC mammalian cells Vero E6 ATCC CRL1586” value in series [4] is 20 µg/mL.
In the case of `Cc1ccc(F)cc1NC(=O)C(Cc1ccccc1)NC(=O)c1ccccc1C` (stereo not shown) [IX-83, N-(1-((5-fluoro-2-methylphenyl)amino)-1-oxo-3-phenylpropan-2-yl)-2-methylbenzamide], the results for the MIC in series [1], in series [2] and in series [3] were 0.78 µg/mL (≈ 2 µM), 1.56 µg/mL (≈ 4 µM) and 0.195 µg/mL (≈ 0.499 µM), respectively. The “MCC mammalian cells Vero E6 ATCC CRL1586” value in series [4] is 1.4 µg/mL.
As to `O=C(NC(Cc1ccccc1)C(=O)Nc1cccc2ncccc12)c1cccs1` (stereo not shown) [IX-85, N-(1-oxo-3-phenyl-1-(quinolin-5-ylamino)propan-2-yl)thiophene-2-carboxamide], the results for the MIC in series [1], in series [2] and in series [3] were 12.5 µg/mL (≈ 31.1 µM), 25 µg/mL (≈ 62.3 µM) and 0.39 µg/mL (≈ 0.971 µM), respectively. For the same compound, the “MCC mammalian cells Vero E6 ATCC CRL1586” value in series [4] turned out to be 40 µg/mL.

Values taken from patent US9919998B2, “Antibacterial agents: Nα-aroyl-N-aryl-phenylalaninamides” (priority 2014, dated 2018).
